According to ChEMBL document CHEMBL4613261, “Metabolic and Pharmaceutical Aspects of Fluorinated Compounds” (J Med Chem, 2020):
In brackets after ≈: the same amount, converted by molar mass.

Key:
[1] = Clearance in human liver microsomes assessed per mg protein; type: ADME, Microsome
[2] = Solubility of the compound in aqueous buffer at pH 6.5; type: physicochemical
Lysine decarboxylase = molecular target: T1, Lysine decarboxylase (Hafnia alvei, UniProt P05033); assay: Time dependent inhibition of Hafnia alvei lysine decarboxylase using L-lysine by Kitz-Wilson analysis
T1 sequence (P05033 whole entry): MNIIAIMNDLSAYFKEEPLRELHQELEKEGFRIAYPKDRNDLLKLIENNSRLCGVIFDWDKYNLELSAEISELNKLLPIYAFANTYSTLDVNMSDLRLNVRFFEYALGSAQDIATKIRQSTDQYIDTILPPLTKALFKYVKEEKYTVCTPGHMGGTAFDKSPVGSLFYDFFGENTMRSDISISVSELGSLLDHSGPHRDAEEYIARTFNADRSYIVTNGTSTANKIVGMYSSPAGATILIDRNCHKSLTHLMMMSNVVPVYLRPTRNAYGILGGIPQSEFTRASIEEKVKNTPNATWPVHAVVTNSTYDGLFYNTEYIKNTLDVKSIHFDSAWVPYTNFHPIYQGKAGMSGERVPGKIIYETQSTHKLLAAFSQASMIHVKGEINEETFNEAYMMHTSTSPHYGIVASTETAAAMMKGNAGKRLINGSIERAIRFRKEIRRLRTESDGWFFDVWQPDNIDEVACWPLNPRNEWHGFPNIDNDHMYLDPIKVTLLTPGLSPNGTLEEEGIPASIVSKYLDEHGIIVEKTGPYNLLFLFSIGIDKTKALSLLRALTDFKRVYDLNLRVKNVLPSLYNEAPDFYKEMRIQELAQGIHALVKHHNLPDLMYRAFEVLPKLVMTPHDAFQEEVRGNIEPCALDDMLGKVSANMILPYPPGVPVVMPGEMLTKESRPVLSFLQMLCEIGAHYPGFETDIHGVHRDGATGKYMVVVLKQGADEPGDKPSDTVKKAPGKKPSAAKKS

[3] = Apparent half life in rat blood; type: ADME, tissue-based
[4] = Apparent half life in rat brain; type: ADME, tissue-based
[5] = Acute toxicity in rat measured after 4 hrs; conditions: in vivo
[6] = Substrate activity at cytochrome p450 in phenobarbital-induced rat liver microsomes assessed as cytochrome p450-mediated-deethoxylation per mg of protein; type: ADME
[7] = molecular target: Alanine racemase, biosynthetic (Escherichia coli K-12, UniProt P0A6B4); assay: Substrate activity at Escherichia coli B alanine racemase assessed as partition ratio by measuring ratio of turnover rate to inactivation rate
[8] = Substrate activity at GSTZ (unknown origin) assessed as rate of drug conversion to S-(carboxymethyl)-glutathione per mg of protein; type: ADME; conditions: human
[9] = Intrinsic clearance in human liver microsome; type: ADME; conditions: liver microsomes, read-out: CLH
[10] = Protein binding in human plasma
[11] = Aqueous solubility of the compound in pH 6.8 buffer
[12] = Lipophilicity, log P of the compound; conditions: octanol/water
[13] = molecular target: T2, Microsomal glutathione S-transferase 1 (Rattus norvegicus, UniProt P08011); assay: Substrate activity at MGST1 in rat liver microsomes assessed as reactivity rate at 50 uM incubated for 1 to 40 mins in presence of GSH by liquid chromatography/mass spectrometry
T2 sequence (P08011 whole entry): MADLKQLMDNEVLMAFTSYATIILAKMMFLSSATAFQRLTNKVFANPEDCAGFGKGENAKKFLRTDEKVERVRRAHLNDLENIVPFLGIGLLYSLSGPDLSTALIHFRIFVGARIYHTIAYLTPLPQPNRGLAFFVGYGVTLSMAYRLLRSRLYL

[14] = Prodrug conversion in rat blood assessed as total fraction of didanosine formation by HPLC analysis; type: ADME, tissue-based
[15] = Prodrug conversion in rat blood assessed as rate of didanosine formation by HPLC analysis; type: ADME, tissue-based
Adenosine deaminase [16] = molecular target: T3, Adenosine deaminase (Rattus norvegicus, UniProt Q920P6); assay: Prodrug conversion in rat blood assessed as rate of adenosine deaminase-mediated didanosine formation by HPLC analysis; type: ADME, tissue-based
T3 sequence (Q920P6 whole entry): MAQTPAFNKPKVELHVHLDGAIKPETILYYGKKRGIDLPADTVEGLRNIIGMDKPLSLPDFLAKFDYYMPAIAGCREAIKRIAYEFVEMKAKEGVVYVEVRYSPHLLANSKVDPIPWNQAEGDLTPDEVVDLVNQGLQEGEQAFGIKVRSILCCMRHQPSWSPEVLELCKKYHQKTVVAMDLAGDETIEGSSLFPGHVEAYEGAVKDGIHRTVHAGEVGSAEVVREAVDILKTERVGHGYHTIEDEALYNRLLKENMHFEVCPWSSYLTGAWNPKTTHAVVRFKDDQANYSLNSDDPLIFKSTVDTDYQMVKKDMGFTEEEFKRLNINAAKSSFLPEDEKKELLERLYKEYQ

Adenosine deaminase [17] = molecular target: T3, Adenosine deaminase; assay: Prodrug conversion in rat brain assessed as rate of adenosine deaminase-mediated didanosine formation by HPLC analysis; type: ADME, tissue-based; conditions: in vivo
[18] = Prodrug conversion in rat brain assessed as total fraction of didanosine formation by HPLC analysis; type: ADME, tissue-based; conditions: in vivo
[19] = Prodrug conversion in rat brain assessed as rate of didanosine formation by HPLC analysis; type: ADME, tissue-based; conditions: in vivo
[20] = Lipophilicity, log P of the compound by C18 reverse phase HPLC; type: physicochemical
[21] = molecular target: T4, MGST1 (microsomal glutathione S-transferase 1) (Rattus norvegicus, UniProt P08011); assay: Substrate activity at MGST1 in rat liver microsomes assessed as substrate depletion at 50 uM incubated for 30 mins in presence of GSH by liquid chromatography/mass spectrometry; type: ADME; conditions: read-out: Activity
T4 sequence (P08011 whole entry): T2 sequence (P08011 whole entry)

[22] = Drug elimination in human; type: ADME; conditions: read-out: Drug excretion
Cytochrome P450 2C8 = molecular target: T5, Cytochrome P450 2C8 (Homo sapiens, UniProt P10632); assay: Inhibition of CYP2C8 (unknown origin) assessed as reduction in amodiaquine N-deethylation; type: ADME
T5 sequence (P10632 whole entry): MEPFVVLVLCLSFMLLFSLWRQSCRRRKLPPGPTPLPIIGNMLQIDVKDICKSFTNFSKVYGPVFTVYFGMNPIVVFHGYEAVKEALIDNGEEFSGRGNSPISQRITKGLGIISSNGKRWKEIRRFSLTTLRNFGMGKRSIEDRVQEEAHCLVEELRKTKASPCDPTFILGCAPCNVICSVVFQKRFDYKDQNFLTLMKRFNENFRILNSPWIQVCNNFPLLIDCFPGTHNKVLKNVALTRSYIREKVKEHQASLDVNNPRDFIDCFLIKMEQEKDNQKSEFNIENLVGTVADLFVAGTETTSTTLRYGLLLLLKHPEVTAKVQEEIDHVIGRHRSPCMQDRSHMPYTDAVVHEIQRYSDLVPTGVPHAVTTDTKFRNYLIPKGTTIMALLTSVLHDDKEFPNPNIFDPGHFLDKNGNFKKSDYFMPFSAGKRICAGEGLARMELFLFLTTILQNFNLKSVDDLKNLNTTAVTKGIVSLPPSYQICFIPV

Cytochrome P450 2C9 = Cytochrome P450 2C9 (Homo sapiens, UniProt P11712); assay: Inhibition of CYP2C9 (unknown origin) assessed as reduction in diclofenac 4-hydroxylation; type: ADME
Cytochrome P450 2C9, sequence (P11712 whole entry): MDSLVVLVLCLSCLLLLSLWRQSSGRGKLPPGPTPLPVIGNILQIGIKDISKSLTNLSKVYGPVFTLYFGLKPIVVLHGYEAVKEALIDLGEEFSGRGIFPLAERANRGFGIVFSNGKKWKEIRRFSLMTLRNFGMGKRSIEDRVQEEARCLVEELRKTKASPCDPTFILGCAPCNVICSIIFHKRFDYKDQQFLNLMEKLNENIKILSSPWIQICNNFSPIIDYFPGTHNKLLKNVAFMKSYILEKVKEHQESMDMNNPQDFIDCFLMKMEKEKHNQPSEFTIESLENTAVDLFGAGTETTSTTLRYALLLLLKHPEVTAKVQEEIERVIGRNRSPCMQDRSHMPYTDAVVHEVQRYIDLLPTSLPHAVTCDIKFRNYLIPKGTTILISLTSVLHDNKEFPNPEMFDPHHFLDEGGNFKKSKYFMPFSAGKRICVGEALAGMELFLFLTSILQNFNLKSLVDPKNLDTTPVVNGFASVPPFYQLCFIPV

Alanine racemase, biosynthetic, sequence (P0A6B4 whole entry): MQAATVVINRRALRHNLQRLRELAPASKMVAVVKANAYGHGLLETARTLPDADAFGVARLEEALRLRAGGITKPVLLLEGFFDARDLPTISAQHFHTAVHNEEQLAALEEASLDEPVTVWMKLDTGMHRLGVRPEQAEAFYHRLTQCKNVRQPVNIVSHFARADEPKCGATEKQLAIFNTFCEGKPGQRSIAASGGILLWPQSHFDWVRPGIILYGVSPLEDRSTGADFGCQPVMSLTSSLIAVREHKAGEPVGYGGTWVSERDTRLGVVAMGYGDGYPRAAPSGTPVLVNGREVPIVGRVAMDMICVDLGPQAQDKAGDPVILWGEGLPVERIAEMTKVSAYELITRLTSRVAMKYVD

For `FCC(F)Cc1c[nH]c2ccccc12` (stereo not drawn), the CLH [1] was 212 min⁻¹ µL⁻¹ and the solubility [2] was greater than 1720 µM.
`C=C(F)[C@@](N)(CCCCN)C(=O)O` gave a Ki (Lysine decarboxylase) of 470 µM.
With `OC[C@@H]1CC[C@H](n2cnc3c(Br)ncnc32)O1` the half-life [3] was 280 min and the half-life [4] was 20 min.
For `FC(F)=C(F)C(F)(F)F`, the Activity [5] was 3000 ppm.
Compound `CCOc1ccc2ccc(=O)oc2c1` [ETHOXYCOUMARIN] has an Activity [6] of 1.93 nmol/min.
Compound `NC(C(=O)O)C(F)(F)F` (racemic) has a Ratio [7] of 10.
`CC(I)C(=O)O` (racemic) gave a K [8] of 2532 nmol/min.
For `CCOc1ccc(NC(C)=O)cc1` [PHENACETIN], the Activity [6] was 3.48 nmol/min.
With `O=[N+]([O-])c1cn2c(n1)OC[C@@H](OCc1ccc(OC(F)(F)F)cc1)C2` [PRETOMANID] the microsomal CLint [9] was less than 25 µL/min/mg, the PPB [10] was 38% and the solubility ([11]; buffer) was 8 µM (≈ 2.87 µg/mL). For the same compound, the logP [12] was 2.2.
Work on `N[C@H](C(=O)O)C(F)F` yielded a Ratio [7] of 5000.
In the case of `Clc1ccccn1` [2-CHLOROPYRIDINE], the Activity [13] is reported as less than 2 nmol/min/mg.
`N[C@H](CF)C(=O)O` [FLUDALANINE] gave a Ratio [7] of 810.
For `N[C@@H](CF)C(=O)O`, the Ratio [7] was 790.
In the case of `OC[C@@H]1CC[C@H](n2cnc3c(Cl)ncnc32)O1`, the Fm [14] is reported as 0.28, the K [15] is reported as 7.4 ×10⁻³ /min and the K (Adenosine deaminase [16]) is reported as 3 ×10⁻³ /min. The K (Adenosine deaminase [17]) was 0.032 min⁻¹, the half-life [3] was 270 min and the Fm [18] was 1. For the same compound, the K [19] was 0 min⁻¹ and the half-life [4] was 19 min.
`CCOc1ccccc1` [PHENETOLE] gave a logP [20] of 2.96.
With `FC(F)(F)Oc1ccccc1` the logP [20] was 3.35.
Compound `O=[N+]([O-])c1cccnc1Cl` has an Activity [13] of 236 nmol/min/mg and a metabolised at 0.5 h, 50 µM [21] of 100%.
`Nc1nc2ccc(SC(F)(F)F)cc2s1` showed a microsomal CLint [9] of 40.9 µL/min/mg, a fraction unbound [10] of 0.24 and a solubility ([11]; pH 6.8 buffer) of 124 µM (≈ 31 µg/mL). The logP [12] was 3.6.
`CC(Cl)C(=O)O` (racemic) showed a K [8] of 1655 nmol/min.
In the case of `FC(F)(F)C(Cl)Br` (stereo not drawn) [HALOTHANE], the dose excreted [22] is reported as 80%.
For `Cc1ccc(NC(=O)C2(c3ccc4c(c3)OC(F)(F)O4)CC2)nc1-c1cccc(C(=O)O)c1` [LUMACAFTOR], the IC50 (Cytochrome P450 2C8) was 12 µM and the IC50 (Cytochrome P450 2C9) was 32 µM.
